This is an account of results in patent publication US20250129021A1, “SMALL MOLECULE PROTEIN SYNTHESIS MODULATORS” (Interdict Bio, Inc., priority 2023, published 2025).

Molecules are shown by their SMILES. Where a name gives a salt, the structure may show the parent alone.

Type in all cases: biochemical
One assay relates to MYC. The experiment in a line: In vitro transcription-translation (IVTT) assay, MYC reporter. To be noted: HeLa S3 lysate, 2 hrs at 30° C. Put shortly:
(§1)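 Reporter: mCherry, P2A, then 3×FLAG-target peptide-sfGFP fusion, IRES-initiated; HeLa S3 lysate IVTT; cpd dilutions 30 μM−0.1 μM half-log in 100% DMSO (dilution-plate conc); DNA added last; 2 h, 30° C; PBS quench.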

For the next assay, the system named is ALK. The experiment in a line: In vitro transcription-translation (IVTT) assay, ALK reporter. The conditions noted are these: HeLa S3 lysate, sfGFP/mCherry ratio, 2 hrs at 30° C. An excerpt: All reporter constructs have been cloned into the pT7CFE1-CHis plasmid (ThermoFisher #88860) using Gibson assembly procedures (NEB #E2611L). The parental pT7CFE1-CHis plasmid contains an EMCV IRES at the 5′UTR for translation initiation, a multiple-cloning site (MCS) for gene insertion, an optional C-terminal His-epitope tag, and polyA sequence in the 3′UTR to regulate mRNA stability. All reporters are designed to be inserted at the MCS to include a red fluorescent protein (mCherry), P2A self-cleaving peptide which releases the preceding mCherry protein product, and a fusion open reading frame containing a 3×FLAG epitope, a peptide sequence of interest (TEST), and green fluorescent protein (sfGFP).
Construct Plasmid Preparation: All plasmids are isolated from MACH1 cells (ThermoFisher) grown overnight in ampicillin-containing luria broth, and purified using ZymoPure Express Plasmid Midiprep Kit (Zymo Research). Constructs are sequenced verified and diluted to a working concentration of 110 ng/μL.
HeLa S3 Lysate Preparation: HeLa S3 cell pellets are acquired from Ipracell/Ipratech (Belgium) and shipped as 4 mL frozen cell pellets on dry ice for storage at −80° C. until use. The procedure for lysate preparation is as follows. Prepare 1× Lysis Buffer, cold and stored on ice:
Each preparation takes 8 cell pellets (4 ml packed volume each, approximately 1.0×10^9 cells per pellet). Thaw cell pellets from −80° C. on ice for 90 mins. Lay pellets horizontally on top of the ice and rotate every 30 mins to ensure even thawing. Once thawed, add 4 mL of cold lysis buffer to each pellet, and using a serological pipet, gently pipet up and down to break up clumps. Incubate resuspended cells in ice for an additional 30 mins (plunged into ice). During 30 min incubation, rinse and RNase-zap (Ambion) glass dounces (use loose pestle “A”), gently dry and place on ice until needed. Prepare RNase-free Eppendorf tubes for spinning and for batch storage. Add batch labels to 1.5-1.7 mL RNase-free microcentrifuge tubes (labeling scheme below). Each batch will have an extra 1.5-1.7 mL RNase-free microcentrifuge tube for 40 μL of lysate, label the top of this tube (labeling scheme below). After 30 min incubation, transfer all 8 mL of cell pellet to dounce. Cell lysis is complete after douncing 100 times. Aliquot cell lysis into 1.5-1.7 mL temporary-microcentrifuge tubes. Place tubes in centrifuge with “fins” out, and spin at 1,200×g for 5 mins. After the first spin use a 1 mL pipet to resuspend each tube and repeat spin. This acts as an additional lysis step, is more vigorous and increases lysate yield. During second spin get liquid N2 and a fresh conical tube on ice. After spin is complete, transfer supernatant (lysate) from microcentrifuge tubes into the 50 mL conical tube and keep on ice. Repeat steps 10-14 for all other cell pellets until completed. Once all cell lysate has been transferred to the 50 mL conical tube pipet to mix so the solution is homogenous. Transfer 1 mL of lysate into batch-labeled microcentrifuge tubes and flash freeze in liquid nitrogen. Be sure to pipet up and down to mix throughout transfer step. Place all tubes in the […] for long-term storage.
In vitro transcription-translation assay setup: Each assay includes a master mix containing lysate and shared components, a 96-well plate containing compound titrations for testing, a 96-well DNA plate with reporter constructs to be tested, 96-well skirted PCR plates, and 96-well flat-bottom, black, fluorescent assay plates. […]

For the next assay, the system named is MCL-1. The experiment in a line: In vitro transcription-translation (IVTT) assay, MCL-1 reporter. The conditions noted are these: IVTT, HeLa S3 lysate, 2 hrs at 30° C.; read-out: MCL1 IC50. Put shortly: as §1
The test system of the next assay is CCND1. The experiment in a line: In vitro transcription-translation (IVTT) assay, CCND1 reporter. To be noted: IVTT, HeLa S3 lysate, 2 hrs at 30° C. Put shortly:
as §1

The test system of a further assay is CCNTB1. The experiment in a line: In vitro transcription-translation (IVTT) assay, CCNTB1 reporter. To be noted: HeLa S3 lysate, 2 hrs at 30° C. Put shortly: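 IC50 fitted from the sfGFP/mCherry fluorescence ratio, normalized to no-drug control after no-DNA background subtraction. Reactions ran 2 h at 30° C in HeLa S3 cell lysate with reporter plasmid DNA and half-log compound titrations (30 μM−0.1 μM, in DMSO).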

Where [1] appears, read: IVTT assay, MYC reporter, normalized sfGFP/mCherry ratio, half-log dilutions 30 μM-0.1 μM.

As usually defined, the IC50 is the concentration at which inhibition is half-maximal. Take `CCN(CC)CCNC(=O)O[C@@H]1[C@@H](O)CN[C@@H]1Cc1ccc(OC)cc1` [V187384, (2R,3S,4S)-4-hydroxy-2-[(4-methoxyphenyl)methyl]pyrrolidin-3-yl N-[2-(diethylamino)ethyl]carbamate]: the values for the IC50 in the assay with MYC (sfGFP/mCherry ratio) and in the assay with ALK were > 30 µM and 10 to 20 µM, respectively.

Take `COc1ccc(C[C@H]2NC[C@H](O)[C@H]2OC(=O)NCCN)cc1` [V187575, (2R,3S,4S)-4-hydroxy-2-[(4-methoxyphenyl)methyl]pyrrolidin-3-yl N-(2-aminoethyl)carbamate; trifluoroacetic acid]: the IC50 in the assay on MYC (sfGFP/mCherry ratio) is 20 to 30 µM; in the assay with ALK, < 10 µM.

As to `COc1ccc(C[C@H]2NC[C@H](O)[C@H]2OC(=O)NCc2cn(-c3cc4ccc(O)cc4oc3=O)nn2)cc1` [V187692, (2R,3S,4S)-4-hydroxy-2-[(4-methoxyphenyl)methyl]pyrrolidin-3-yl N-{[1-(7-hydroxy-2-oxochromen-3-yl)-1,2,3-triazol-4-yl]methyl}carbamate; trifluoroacetic acid], the IC50 with MYC (sfGFP/mCherry ratio) and with ALK was > 30 µM each time.

Consider `COc1ccc(C[C@H]2NC[C@H](O)[C@H]2OC(=O)NCCOCCN2CCNCC2)cc1` [V187626, (2R,3S,4S)-4-hydroxy-2-[(4-methoxyphenyl)methyl]pyrrolidin-3-yl N-{2-[2-(piperazin-1-yl)ethoxy]ethyl}carbamate; trifluoroacetic acid], for which the IC50 with MYC (sfGFP/mCherry ratio) was > 30 µM; in the assay on ALK it was 20 to 30 µM.

Consider `COc1ccc(C[C@H]2NC[C@H](O)[C@H]2OC(=O)Nc2nccs2)cc1` [V187752, (2R,3S,4S)-4-hydroxy-2-[(4-methoxyphenyl)methyl]pyrrolidin-3-yl N-(1,3-thiazol-2-yl)carbamate Hydrochloride], for which the IC50 in the assay with MYC (sfGFP/mCherry ratio) was 10 to 20 µM; in the assay with ALK, < 10 µM.

Turning to `CNC(=O)O[C@@H]1[C@@H](O)CN[C@@H]1Cc1ccc(OC)cc1` [V187583, (2R,3S,4S)-4-hydroxy-2-[(4-methoxyphenyl)methyl]pyrrolidin-3-yl N-methylcarbamate; trifluoroacetic acid], the IC50 in the assay with ALK is < 10 µM.

In the case of `O=C(NCc1cccc(F)c1)O[C@@H]1[C@@H](O)CN[C@@H]1Cc1ccc(OC(F)(F)F)cc1` [V190509, (2R,3S,4S)-4-hydroxy-2-(4-(trifluoromethoxy)benzyl)pyrrolidin-3-yl (3-fluorobenzyl)carbamate], the half-inhibitory concentration (IC50) is > 30 µM in the assay on MCL-1, > 30 µM with CCND1, > 30 µM with MYC (setting [1]) and 20 to 30 µM in the assay with CCNTB1.

For the molecule `COc1ccc(C[C@H]2NC[C@H](O)[C@H]2OC(=O)NCCN2CCC3(CCC3)C2)cc1` [V187641, (2R,3S,4S)-4-hydroxy-2-[(4-methoxyphenyl)methyl]pyrrolidin-3-yl N-(2-{6-azaspiro[3.4]octan-6-yl}ethyl)carbamate], the IC50 in the assay on ALK is 10 to 20 µM.

Turning to `O=C(NCc1cccc(F)c1)O[C@@H]1[C@@H](O)CN[C@@H]1Cc1ccc(C2CC2)cc1` [V190518, (2R,3S,4S)-2-[(4-cyclopropylphenyl)methyl]-4-hydroxypyrrolidin-3-yl N-[(3-fluorophenyl)methyl]carbamate], the IC50 is 10 to 20 µM with MCL-1, 20 to 30 µM with CCND1, 10 to 20 µM in the assay with MYC (setting [1]) and < 10 µM with CCNTB1.

In the case of `COc1ccc(C[C@H]2NC[C@H](O)[C@H]2OC(=O)NCC[C@@H]2CCCN2)cc1` [V188341, (2R,3S,4S)-4-hydroxy-2-[(4-methoxyphenyl)methyl]pyrrolidin-3-yl N-{2-[(2S)-pyrrolidin-2-yl]ethyl}carbamate], the concentration for half-maximal inhibition (IC50) in the assay with MCL-1, with CCND1, in the assay on MYC (setting [1]) and in the assay on CCNTB1 was < 10 µM each time.

Consider `COc1ccc(C[C@H]2NC[C@H](O)[C@H]2OC(=O)NCc2ccc(F)c(F)c2)cc1` [V190408, (2R,3S,4S)-4-hydroxy-2-[(4-methoxyphenyl)methyl]pyrrolidin-3-yl N-[(3,4-difluorophenyl)methyl]carbamate], for which the half-inhibitory concentration (IC50) in the assay on MCL-1, with CCND1, in the assay on MYC (setting [1]) and in the assay on CCNTB1 was < 10 µM in each case.

Turning to `COc1ccc(C[C@H]2NC[C@H](O)[C@H]2OC(=O)NCC[C@@H]2CCN2)cc1` [V191920, (2R,3S,4S)-4-hydroxy-2-[(4-methoxyphenyl)methyl]pyrrolidin-3-yl N-{2-[(2S)-azetidin-2-yl]ethyl}carbamate], the half-inhibitory concentration (IC50) with MCL-1, with CCND1, with MYC (setting [1]) and in the assay on CCNTB1 was < 10 µM each time.

In the case of `COc1ccc(C[C@H]2NC[C@H](O)[C@H]2OC(=O)NCc2ccnc3c2CCN3)cc1` [V188360, (2R,3S,4S)-4-hydroxy-2-[(4-methoxyphenyl)methyl]pyrrolidin-3-yl N-{1H,2H,3H-pyrrolo[2,3-b]pyridin-4-ylmethyl}carbamate], the concentration for half-maximal inhibition (IC50) in the assay with MCL-1, in the assay with CCND1, with MYC (setting [1]) and with CCNTB1 was < 10 µM each time.

For the molecule `COc1ccc(C[C@H]2NC[C@H](O)[C@H]2OC(=O)NCc2cnsc2)cc1` [V188384, (2R,3S,4S)-4-hydroxy-2-[(4-methoxyphenyl)methyl]pyrrolidin-3-yl N-(1,2-thiazol-4-ylmethyl)carbamate], the IC50 in the assay on MCL-1, in the assay on CCND1, in the assay with MYC (setting [1]) and with CCNTB1 was < 10 µM each time.

With `COc1ccc(C[C@H]2NC[C@H](O)[C@H]2OC(=O)NC[C@H]2CCN(C)C2)cc1` [V188306], the IC50 with MCL-1, in the assay with CCND1, with MYC (setting [1]) and in the assay with CCNTB1 was < 10 µM throughout.

On to `COc1ccc(C[C@H]2NC[C@H](O)[C@H]2OC(=O)Nc2nc3ccccc3[nH]2)cc1` [V187754, (2R,3S,4S)-4-hydroxy-2-[(4-methoxyphenyl)methyl]pyrrolidin-3-yl N-(1H-1,3-benzodiazol-2-yl)carbamate], for which the IC50 in the assay with ALK is < 10 µM.

Consider `COc1ccc(C[C@H]2NC[C@H](O)[C@H]2OC(=O)NCC(=O)N[C@@H](C)C(=O)O)cc1` [V188019, (2S)-2-{2-[({[(2R,3S,4S)-4-hydroxy-2-[(4-methoxyphenyl)methyl]pyrrolidin-3-yl]oxy}carbonyl)amino]acetamido}propanoic acid], for which the IC50 in the assay with MCL-1 was > 30 µM; in the assay on CCND1, > 30 µM; with MYC (setting [1]) it was 10 to 20 µM; in the assay on CCNTB1 it was > 30 µM.

For the molecule `COc1ccc(C[C@H]2NC[C@H](O)[C@H]2OC(=O)NCC2CCC2)cc1` [V188318, (2R,3S,4S)-4-hydroxy-2-[(4-methoxyphenyl)methyl]pyrrolidin-3-yl N-(cyclobutylmethyl)carbamate], the IC50 with MCL-1, in the assay with CCND1, in the assay on MYC (setting [1]) and with CCNTB1 was < 10 µM in each case.

For `Cn1cc(-c2ccc(C[C@H]3NC[C@H](O)[C@H]3OC(=O)NCc3ccccc3)cc2)nn1` [V188392, (2R,3S,4S)-4-hydroxy-2-{[4-(1-methyl-1,2,3-triazol-4-yl)phenyl]methyl}pyrrolidin-3-yl N-benzylcarbamate], the half-maximal inhibitory concentration (IC50) in the assay with MCL-1, in the assay on CCND1, with MYC (setting [1]) and in the assay with CCNTB1 was < 10 µM throughout.
